Measured values published in ChEMBL document CHEMBL1138676, “Liver-selective glucocorticoid antagonists: a novel treatment for type 2 diabetes” (J Med Chem, 2004).

What was measured:
[1] = molecular target: T1, Androgen receptor (Homo sapiens, UniProt P10275)
T1 sequence (P10275 whole entry): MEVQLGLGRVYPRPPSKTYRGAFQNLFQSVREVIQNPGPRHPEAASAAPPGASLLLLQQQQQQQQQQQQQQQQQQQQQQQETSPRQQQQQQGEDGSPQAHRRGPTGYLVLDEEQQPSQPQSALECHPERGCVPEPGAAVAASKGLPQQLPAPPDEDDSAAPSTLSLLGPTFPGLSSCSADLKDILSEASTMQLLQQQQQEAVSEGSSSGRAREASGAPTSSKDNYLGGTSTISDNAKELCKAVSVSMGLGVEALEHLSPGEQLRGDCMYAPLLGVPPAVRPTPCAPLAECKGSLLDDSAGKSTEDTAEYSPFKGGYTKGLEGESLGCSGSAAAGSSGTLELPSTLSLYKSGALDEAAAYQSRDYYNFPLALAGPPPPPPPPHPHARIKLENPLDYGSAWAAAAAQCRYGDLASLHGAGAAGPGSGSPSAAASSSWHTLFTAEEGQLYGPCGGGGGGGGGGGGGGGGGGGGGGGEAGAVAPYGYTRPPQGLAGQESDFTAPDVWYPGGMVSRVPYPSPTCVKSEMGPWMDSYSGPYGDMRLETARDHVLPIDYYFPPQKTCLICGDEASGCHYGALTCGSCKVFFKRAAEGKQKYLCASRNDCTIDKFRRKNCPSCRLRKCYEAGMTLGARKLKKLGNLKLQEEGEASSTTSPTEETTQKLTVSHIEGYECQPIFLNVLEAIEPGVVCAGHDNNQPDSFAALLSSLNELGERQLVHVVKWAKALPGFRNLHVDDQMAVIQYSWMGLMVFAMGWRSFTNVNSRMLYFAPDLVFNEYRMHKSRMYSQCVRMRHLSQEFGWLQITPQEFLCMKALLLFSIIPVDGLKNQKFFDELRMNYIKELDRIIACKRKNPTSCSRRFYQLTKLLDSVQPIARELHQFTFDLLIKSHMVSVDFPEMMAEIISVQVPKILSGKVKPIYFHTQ
Description: Inhibition of human androgen receptor

[2] = molecular target: T2, Progesterone receptor (Homo sapiens, UniProt P06401); assay: Inhibition of human progesterone receptor
T2 sequence (P06401 whole entry): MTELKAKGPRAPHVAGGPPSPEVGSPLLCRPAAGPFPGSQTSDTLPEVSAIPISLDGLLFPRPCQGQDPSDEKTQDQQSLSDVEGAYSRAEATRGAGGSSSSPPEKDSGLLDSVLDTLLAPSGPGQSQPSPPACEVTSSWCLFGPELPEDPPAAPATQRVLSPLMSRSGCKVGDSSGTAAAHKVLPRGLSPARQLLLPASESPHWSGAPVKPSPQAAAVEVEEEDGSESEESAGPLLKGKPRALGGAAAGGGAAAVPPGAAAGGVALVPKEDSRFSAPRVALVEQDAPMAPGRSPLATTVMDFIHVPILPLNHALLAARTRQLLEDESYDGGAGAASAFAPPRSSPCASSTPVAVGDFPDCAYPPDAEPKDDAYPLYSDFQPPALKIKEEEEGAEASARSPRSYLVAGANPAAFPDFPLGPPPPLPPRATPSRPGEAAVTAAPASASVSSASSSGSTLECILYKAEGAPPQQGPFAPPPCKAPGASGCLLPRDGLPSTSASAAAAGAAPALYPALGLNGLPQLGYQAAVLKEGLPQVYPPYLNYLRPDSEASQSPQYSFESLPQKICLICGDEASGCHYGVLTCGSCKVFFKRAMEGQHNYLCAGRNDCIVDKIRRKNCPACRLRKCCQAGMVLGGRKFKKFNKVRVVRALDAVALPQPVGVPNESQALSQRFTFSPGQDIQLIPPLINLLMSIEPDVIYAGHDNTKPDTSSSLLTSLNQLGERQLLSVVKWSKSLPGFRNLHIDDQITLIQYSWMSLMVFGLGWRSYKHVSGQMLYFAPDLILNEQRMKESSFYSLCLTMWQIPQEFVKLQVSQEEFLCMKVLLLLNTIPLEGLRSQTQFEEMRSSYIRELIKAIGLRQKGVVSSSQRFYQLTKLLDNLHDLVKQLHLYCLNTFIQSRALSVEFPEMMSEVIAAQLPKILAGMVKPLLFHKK

[3] = molecular target: Glucocorticoid receptor (Rattus norvegicus) (UniProt P06536); assay: Inhibition of glucocorticoid receptor mediated tyrosine amino transferase activity
Glucocorticoid receptor (Rattus norvegicus), sequence (P06536 whole entry, looked up): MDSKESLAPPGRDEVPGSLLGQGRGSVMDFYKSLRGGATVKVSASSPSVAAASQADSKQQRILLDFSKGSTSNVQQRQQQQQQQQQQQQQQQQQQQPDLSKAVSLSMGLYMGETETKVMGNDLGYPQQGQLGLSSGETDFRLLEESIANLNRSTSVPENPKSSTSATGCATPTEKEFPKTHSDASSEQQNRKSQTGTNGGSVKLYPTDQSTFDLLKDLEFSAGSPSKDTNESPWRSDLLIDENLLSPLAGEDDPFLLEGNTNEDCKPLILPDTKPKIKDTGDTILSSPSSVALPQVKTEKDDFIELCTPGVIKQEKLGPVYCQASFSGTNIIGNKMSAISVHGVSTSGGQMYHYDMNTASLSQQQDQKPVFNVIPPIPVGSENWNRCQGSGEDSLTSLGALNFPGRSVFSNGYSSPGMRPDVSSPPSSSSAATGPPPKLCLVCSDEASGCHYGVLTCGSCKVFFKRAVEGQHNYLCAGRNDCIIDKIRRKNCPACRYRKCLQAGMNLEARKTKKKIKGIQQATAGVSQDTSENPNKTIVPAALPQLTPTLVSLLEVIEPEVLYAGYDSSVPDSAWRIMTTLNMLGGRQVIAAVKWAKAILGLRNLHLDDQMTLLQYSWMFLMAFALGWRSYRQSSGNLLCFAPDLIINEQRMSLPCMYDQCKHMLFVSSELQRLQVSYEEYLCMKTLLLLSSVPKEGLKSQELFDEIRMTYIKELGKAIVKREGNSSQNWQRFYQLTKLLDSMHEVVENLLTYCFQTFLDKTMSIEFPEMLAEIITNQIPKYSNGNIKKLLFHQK

[4] = molecular target: T3, Glucocorticoid receptor (Homo sapiens, UniProt P04150); assay: Inhibition of glucocorticoid receptor dependent alkaline phosphatase activity; format: functional
T3 sequence (P04150 whole entry): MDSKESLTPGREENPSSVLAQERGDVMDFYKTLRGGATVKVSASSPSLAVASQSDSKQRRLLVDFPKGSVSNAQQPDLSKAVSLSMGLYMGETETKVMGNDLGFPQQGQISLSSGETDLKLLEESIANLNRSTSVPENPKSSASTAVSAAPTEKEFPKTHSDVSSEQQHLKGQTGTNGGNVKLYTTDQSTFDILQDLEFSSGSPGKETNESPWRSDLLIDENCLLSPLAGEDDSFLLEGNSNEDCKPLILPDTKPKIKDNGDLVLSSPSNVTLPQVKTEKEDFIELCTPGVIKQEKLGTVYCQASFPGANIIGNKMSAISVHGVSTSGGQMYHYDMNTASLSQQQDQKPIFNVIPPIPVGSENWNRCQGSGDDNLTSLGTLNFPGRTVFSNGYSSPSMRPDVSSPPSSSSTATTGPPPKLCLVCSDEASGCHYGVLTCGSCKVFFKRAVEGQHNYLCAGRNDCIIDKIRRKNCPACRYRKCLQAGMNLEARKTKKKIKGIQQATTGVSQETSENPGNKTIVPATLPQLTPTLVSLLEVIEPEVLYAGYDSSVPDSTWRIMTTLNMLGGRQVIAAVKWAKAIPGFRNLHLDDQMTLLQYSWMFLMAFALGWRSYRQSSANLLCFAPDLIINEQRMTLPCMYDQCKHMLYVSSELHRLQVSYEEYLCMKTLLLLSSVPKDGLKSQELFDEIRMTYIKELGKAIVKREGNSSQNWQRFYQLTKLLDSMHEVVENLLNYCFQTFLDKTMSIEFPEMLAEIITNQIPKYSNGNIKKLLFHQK

[5] = molecular target: T3, Glucocorticoid receptor; assay: Inhibition of human glucocorticoid receptor
[6] = molecular target: Glucocorticoid receptor (Rattus norvegicus) (UniProt P06536); assay: Inhibition of glucocorticoid receptor mediated tyrosine aminotransferase activity; set-up: concentration or dose not given beside the values; details: concentration not given here
[7] = Inhibitory activity against rat lymphocytes; set-up: concentration or dose not given beside the values
[8] = molecular target: T4, Mineralocorticoid receptor (Homo sapiens, UniProt P08235)
T4 sequence (P08235 whole entry): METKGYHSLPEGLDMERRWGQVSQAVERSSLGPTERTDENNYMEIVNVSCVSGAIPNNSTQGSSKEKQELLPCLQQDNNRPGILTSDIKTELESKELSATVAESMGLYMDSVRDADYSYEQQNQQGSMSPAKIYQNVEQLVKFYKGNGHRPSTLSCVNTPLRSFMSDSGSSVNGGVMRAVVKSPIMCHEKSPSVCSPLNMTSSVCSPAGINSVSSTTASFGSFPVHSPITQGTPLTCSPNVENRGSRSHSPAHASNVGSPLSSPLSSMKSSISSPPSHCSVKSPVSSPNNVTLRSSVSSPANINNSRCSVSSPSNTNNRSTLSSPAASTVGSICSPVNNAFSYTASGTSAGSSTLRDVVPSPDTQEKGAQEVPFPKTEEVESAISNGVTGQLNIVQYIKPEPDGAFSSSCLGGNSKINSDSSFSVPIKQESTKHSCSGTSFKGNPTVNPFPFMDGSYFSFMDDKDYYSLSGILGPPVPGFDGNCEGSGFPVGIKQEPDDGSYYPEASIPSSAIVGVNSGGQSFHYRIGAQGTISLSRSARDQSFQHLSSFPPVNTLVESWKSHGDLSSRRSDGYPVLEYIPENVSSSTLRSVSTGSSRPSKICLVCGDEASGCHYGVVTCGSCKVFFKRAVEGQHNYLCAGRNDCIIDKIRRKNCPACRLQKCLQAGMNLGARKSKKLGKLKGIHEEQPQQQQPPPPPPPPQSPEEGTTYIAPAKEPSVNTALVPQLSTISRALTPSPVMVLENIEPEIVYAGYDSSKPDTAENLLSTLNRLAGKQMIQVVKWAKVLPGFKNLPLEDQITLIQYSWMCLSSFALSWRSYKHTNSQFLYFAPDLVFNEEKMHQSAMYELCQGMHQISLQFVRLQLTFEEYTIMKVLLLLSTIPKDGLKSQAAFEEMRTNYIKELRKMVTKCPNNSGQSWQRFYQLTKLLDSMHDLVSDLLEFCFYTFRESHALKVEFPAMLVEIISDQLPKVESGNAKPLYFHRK
Description: Inhibition of human Mineralocorticoid receptor

| Structure (SMILES) | Ki [1] | Ki [2] | Ki [3] | Ki [4] | Ki [5] | inhibition [6] | Inhibition [7] | Ki [8] |
| --- | --- | --- | --- | --- | --- | --- | --- | --- |
| C#C[C@]1(O)CC[C@H]2[C@@H]3CCC4=CC(=O)CCC4=C3[C@@H](c3ccc(N(C)CCNC(=O)O[C@@H]4C[C@@H]5CC(O)CC[C@]5(C)[C@H]5C[C@H](O)[C@]6(C)[C@@H]([C@H](C)CCC(=O)O)CC[C@H]6[C@H]45)cc3)C[C@@]21C (stereo partly drawn) | 18 nM | 4.6 nM | 730 nM | 37 nM | 1.2 nM | – | – | – |
| C#C[C@]1(O)CC[C@H]2[C@@H]3CCC4=CC(=O)CCC4=C3[C@@H](c3ccc(N(C)CCOC4CC[C@@]5(C)[C@@H](C4)C[C@@H](O)[C@@H]4[C@@H]5C[C@H](O)[C@]5(C)[C@@H]([C@H](C)CCC(=O)O)CC[C@@H]45)cc3)C[C@@]21C (stereo in doubt; form 2) | – | – | – | – | – | 72% | – | – |
| C#C[C@]1(O)CC[C@H]2[C@@H]3CCC4=CC(=O)CCC4=C3[C@@H](c3ccc(N(C)C(=O)CNC(=O)O[C@H]4C[C@H]5[C@@H]([C@H](O)C[C@@H]6C[C@H](O)CC[C@@]65C)[C@@H]5CC[C@H]([C@H](C)CCC(=O)O)[C@@]45C)cc3)C[C@@]21C | – | – | 500 nM | 100 nM | 6.5 nM | – | – | – |
| C#C[C@]1(O)CC[C@H]2[C@@H]3CCC4=CC(=O)CCC4=C3[C@@H](c3ccc(N(C)CCOC4CC[C@@]5(C)[C@H](CC[C@@H]6[C@@H]5CC[C@]5(C)[C@@H]([C@H](C)CCC(=O)O)CC[C@@H]65)C4)cc3)C[C@@]21C (stereo partly drawn) | – | – | – | 2.7 nM | 0.22 nM | – | – | – |
| C#C[C@]1(O)CC[C@H]2[C@@H]3CCC4=CC(=O)CCC4=C3[C@@H](c3ccc(N(C)CCOC4CC[C@@]5(C)[C@H](CC[C@@H]6[C@@H]5C[C@H](O)[C@]5(C)[C@@H]([C@H](C)CCC(=O)O)CC[C@@H]65)C4)cc3)C[C@@]21C (stereo partly drawn) | – | – | – | 0.38 nM | 0.16 nM | 69% | 22% | – |
| C#C[C@]1(O)CC[C@H]2[C@@H]3CCC4=CC(=O)CCC4=C3[C@@H](c3ccc(N(C)CCOC4CC[C@@]5(C)[C@@H](C4)C[C@@H](O)[C@@H]4[C@@H]5CC[C@]5(C)[C@@H]([C@H](C)CCC(=O)O)CC[C@@H]45)cc3)C[C@@]21C (stereo partly drawn) | – | – | – | 0.76 nM | 0.18 nM | – | – | – |
| C#C[C@]1(O)CC[C@H]2[C@@H]3CCC4=CC(=O)CCC4=C3[C@@H](c3ccc(N(C)CCC[C@@]4(O)CC[C@@]5(C)[C@H](C[C@@H](O)[C@@H]6[C@@H]5C[C@H](O)[C@]5(C)[C@@H]([C@H](C)CCC(=O)O)CC[C@@H]65)C4)cc3)C[C@@]21C | – | – | – | 4.3 nM | 0.11 nM | 6% | 0% | – |
| CC#C[C@]1(O)CC[C@H]2[C@@H]3CCC4=CC(=O)CCC4=C3[C@@H](c3ccc(N(C)CCO[C@H]4CC[C@@]5(C)[C@@H](C4)C[C@@H](O)[C@@H]4[C@@H]5C[C@H](O)[C@]5(C)[C@@H]([C@H](C)CCC(=O)NCCS(=O)(=O)O)CC[C@@H]45)cc3)C[C@@]21C | – | – | – | – | – | – | -6% | – |
| CC#C[C@]1(O)CC[C@H]2[C@@H]3CCC4=CC(=O)CC[C@]4(Cc4ccc(CCCO[C@H]5CC[C@@]6(C)[C@@H](C5)C[C@@H](O)[C@@H]5[C@@H]6C[C@H](O)[C@]6(C)[C@@H]([C@H](C)CCC(=O)O)CC[C@@H]56)cc4)C3=CC[C@@]21C | – | – | – | – | – | 5% | -16% | – |
| C#C[C@]1(O)CC[C@H]2[C@@H]3CCC4=CC(=O)CCC4=C3[C@@H](c3ccc(N(C)CCOCCO[C@@H]4CC[C@@]5(C)[C@@H](C4)C[C@@H](O)[C@@H]4[C@@H]5C[C@H](O)[C@]5(C)[C@@H]([C@H](C)CCC(=O)O)CC[C@@H]45)cc3)C[C@@]21C | 4.8 nM | 1.7 nM | 90 nM | 12 nM | 0.21 nM | 66% | -2% | 170 nM |
| C#C[C@]1(O)CC[C@H]2[C@@H]3CCC4=CC(=O)CCC4=C3[C@@H](c3ccc(N(C)CCOC4CC[C@@]5(C)[C@@H](C4)C[C@@H](O)[C@@H]4[C@@H]5C[C@H](O)[C@]5(C)[C@@H]([C@H](C)CCC(=O)O)CC[C@@H]45)cc3)C[C@@]21C (stereo in doubt; form 1) | – | – | – | – | – | 49% | – | – |
